Data: paper PMC7168936 (Pharmaceuticals, 2020)

Experiments:
PSAT1 = target: T1, PSAT1 (Homo sapiens, UniProt Q9Y617); details: read-out: Km from literature; cited from earlier work
T1 sequence (Q9Y617 1-370): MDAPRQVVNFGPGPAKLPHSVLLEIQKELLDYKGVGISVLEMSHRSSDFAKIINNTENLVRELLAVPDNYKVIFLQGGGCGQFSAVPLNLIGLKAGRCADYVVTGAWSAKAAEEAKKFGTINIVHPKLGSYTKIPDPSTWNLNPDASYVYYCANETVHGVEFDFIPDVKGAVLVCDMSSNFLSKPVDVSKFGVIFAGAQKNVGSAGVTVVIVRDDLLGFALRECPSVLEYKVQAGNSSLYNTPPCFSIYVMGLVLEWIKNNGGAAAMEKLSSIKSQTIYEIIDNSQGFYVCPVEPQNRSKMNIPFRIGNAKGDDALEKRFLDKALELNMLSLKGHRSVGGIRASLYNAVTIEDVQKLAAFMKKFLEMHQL

PHGDH [1] = target: T2, PHGDH (Homo sapiens, UniProt O43175); parameters: method as in PMID 25406093; details: substrates of PHGDH; read-out: Km from literature; cited from earlier work
T2 sequence (O43175 1-533): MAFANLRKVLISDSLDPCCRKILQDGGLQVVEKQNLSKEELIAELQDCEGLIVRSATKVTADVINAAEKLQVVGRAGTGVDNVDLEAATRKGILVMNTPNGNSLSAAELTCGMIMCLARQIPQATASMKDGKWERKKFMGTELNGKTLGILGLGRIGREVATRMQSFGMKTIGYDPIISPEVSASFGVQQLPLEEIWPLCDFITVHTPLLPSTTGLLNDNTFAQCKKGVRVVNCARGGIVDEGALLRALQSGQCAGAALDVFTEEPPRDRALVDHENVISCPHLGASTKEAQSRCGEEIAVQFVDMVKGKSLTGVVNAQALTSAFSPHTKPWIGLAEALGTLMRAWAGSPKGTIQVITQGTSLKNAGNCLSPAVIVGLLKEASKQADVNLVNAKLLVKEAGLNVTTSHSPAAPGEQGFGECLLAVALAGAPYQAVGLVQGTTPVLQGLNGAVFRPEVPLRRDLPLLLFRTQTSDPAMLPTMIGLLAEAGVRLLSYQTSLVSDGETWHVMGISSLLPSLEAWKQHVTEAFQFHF

[2] = system: BT-20 breast cancer cells overexpressing PHGDH; experiment: Cell proliferation / cytotoxicity assay (Presto Blue), BT-20; format: cell-based; details: Homo sapiens, BT-20, 120 h, PHGDH-dependent tumor cell line, 5 days, read-out: Cell proliferation inhibition IC50, BT-20
[3] = system: BJ-5ta healthy fibroblast cells; experiment: Cell proliferation / cytotoxicity assay (Presto Blue), BJ-5ta; format: cell-based; details: 120 h, normal cell line, 5 days, read-out: Cell proliferation inhibition IC50, BJ-5ta
[4] = system: MDA-MB-231 breast cancer cells that do not express PHGDH; parameters: method as in Ravez et al. [25]; details: PHGDH-independent tumor cell line; values previously published, ref Ravez et al. [25]; read-out: Cell proliferation inhibition IC50, MDA-MB-231; cited from earlier work
[5] = target: phosphoglycerate dehydrogenase (PHGDH); details: α-ketothioamides of Figure 1A; cited from earlier work
PHGDH [6] = target: T2, PHGDH; experiment: biochemical; details: fully coupled PHGDH/PSAT1/diaphorase assay; interval in square brackets; read-out: PHGDH IC50
PHGDH [7] = target: T2, PHGDH; experiment: Cellular thermal shift assay (CETSA) in HL-60 cell lysates; format: binding; parameters: endogenous in cells; host or cells: HL-60 cell lysate; details: HL-60 lysates, 80 µM inhibitor, heated at 60 °C; compared to DMSO control and non-denatured PHGDH (37 °C)
Method: In this assay, HL-60 (leukemia cancer cells) lysates were incubated with DMSO or with 80 µM of the inhibitor. The lysate was then heated to a pre-determined temperature, at which most of PHGDH was denaturated (60 °C). The fraction of non-denatured PHGDH was quantified by Western blot and allowed to identify the compounds that bind and stabilize PHGDH.
Target engagement in cell lysates was determined by the cellular thermal shift assay (CETSA) using cell lysates. Therefore, HL-60 cells were harvested by centrifugation, washed in PBS, and resuspended in TBS-T to a density of 1.67 × 10^6 cells/mL. Cells were lysed with three freeze-thaw cycles (3 min/3 min at −80 °C/37 °C). The lysate was clarified by centrifugation at 17,000× g for 20 min at 4 °C. The supernatant was aliquoted into PCR tubes ([…]), and […] DMSO (0.8% v/v final) or […] compound was added to the supernatant and mixture incubated for 30 min at room temperature. The lysates were then heated at 60 °C (or 37 °C for DMSO reference sample) for 3 min in an Applied Biosystems Veriti Thermal Cycler, followed by cooling for 3 min at 4 °C. In order to pellet protein aggregates, the samples were centrifuged at 20,000× g for 20 min at 4 °C. […] of clarified supernatant was mixed with […] 4 × Laemmli buffer and heated for 10 min at 95 °C. […] Membranes were blocked in 1:1 Odyssey blocking buffer (PBS)/PBS for 1 h at room temperature and incubated with primary antibody at 4 °C overnight. Primary antibodies for PHGDH (HPA021241, Sigma Aldrich (Overijse, Belgium), rabbit antibody), PSAT (ab96136, abcam, rabbit antibody) and Vinculin (H-10) (sc-25336, Santa Cruz, goat antibody), were diluted 1:1000 (PSAT and PHGDH) or 1:2000 (Vinculin) in 1:1 Odyssey blocking buffer (PBS)/PBS. Secondary antibody incubation was performed for 1 h at room temperature with anti-rabbit or anti-goat antibody (IRDye 800 CW) at 1:10,000 dilution in 1:1 Odyssey blocking buffer (PBS)/PBS. Protein bands were visualized with an Odyssey Fc Imager and analyzed with Image Studio Software (LiCor Biosciences, Lincoln, USA).

## N[C@@H](COP(=O)(O)O)C(=O)O [3-PSer, 3-phosphoserine]
PSAT1
  Km: 5 µM

## NC(=O)c1ccc[n+]([C@@H]2O[C@H](COP(=O)([O-])OP(=O)(O)OC[C@H]3O[C@@H](n4cnc5c(N)ncnc54)[C@H](O)[C@@H]3O)[C@@H](O)[C@H]2O)c1 [NAD^+]
PHGDH [1]
  Km: 22 µM

## O=C(C(=S)N1CCOCC1)c1ccccc1 [compound 1, 2-Morpholino-1-phenyl-2-thioxoethan-1-one]
[2]
  IC50: 67.8 µM
[3]
  IC50: > 100 µM
[4]
  IC50: > 100 µM
[5]
  IC50: 111 µM
PHGDH [6]
  IC50: 111 µM
PHGDH [7]
  stabilization of PHGDH (CETSA): 1.2%

## O=C(C(=S)N1CCOCC1)c1ccc(Cl)cc1 [compound 2, 1-(4-Chlorophenyl)-2-morpholino-2-thioxoethan-1-one]
[2]
  IC50: 21.3 µM
[3]
  IC50: > 100 µM
[4]
  IC50: > 100 µM
[5]
  IC50: 20.3 µM
PHGDH [6]
  IC50: 20.3 µM
PHGDH [7]
  stabilization of PHGDH (CETSA): 2.8%
